These results are taken from patent publication US9908890B2, “Selective inhibitors of constitutive androstane receptor” (ST. JUDE CHILDREN'S RESEARCH HOSPITAL, priority 2014, dated 2018).

One data set concerns the target T1, GST-hCAR-LBD (Homo sapiens, UniProt Q14994).
T1 construct: purchased Life Technologies (Carlsbad, Calif.) or Invitrogen (Carlsbad, Calif.)
T1 sequence (Q14994 109-352 limits assumed): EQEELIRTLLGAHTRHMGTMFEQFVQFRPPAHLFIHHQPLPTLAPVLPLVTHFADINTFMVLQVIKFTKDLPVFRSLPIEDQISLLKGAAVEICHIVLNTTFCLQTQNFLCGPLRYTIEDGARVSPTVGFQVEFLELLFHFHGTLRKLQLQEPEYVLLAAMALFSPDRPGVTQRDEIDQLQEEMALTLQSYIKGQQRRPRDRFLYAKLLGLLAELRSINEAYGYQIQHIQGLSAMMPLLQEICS
Kind of data set: CoAct binding inverse agonist assay (LanthaScreen TR-FRET, fluorescent PGC-1α coactivator recruitment/repression). The format is biochemical.

In data set [1] the test system is CAR-regulated genes in HepG2-hCAR1 cells. Kind of data set: Quantitative real-time PCR in HepG2-hCAR1 cells. The format is cell-based, human. From the text:
RNA was extracted, cDNA synthesized, and gene expression analyzed by performing real-time PCR using Taqman probes for each gene. […] LS174T cells were maintained in 10% charcoal-dextran-treated, FBS media for 4 days before the experiment. […] Briefly, human primary hepatocytes (HPH) were maintained in William's E media with supplements for 4 days before treatment. […] RNA extracted was used for cDNA synthesis and measured by performing quantitative real-time PCR assays with Taqman probes.
Briefly, LS174T were maintained in 10% charcoal-dextran treated-FBS media for 4 days prior to the experiment. […] For the data shown in both FIG. 12A and FIG. 12B, RNA extracted was used for cDNA synthesis and measured by quantitative real-time PCR with Taqman probes. MDR1 mRNA was normalized to the internal control 18S and DMSO treated samples were set to 1. *, p<0.05 when compared to DMSO samples.
Cell lines or human hepatocytes were treated with chemicals for 24-48 hours before RNA was extracted and purified by using the Maxwell 16LEV simplyRNA tissue kit (Promega). Then, cDNA was prepared from 2 μg of RNA, and diluted cDNA was used to perform quantitative RT-PCR assays by using TaqMan probes (ABI; 7500 Thermocycler) with 18S as the internal standard.
(Quantitative PCR measures a nucleic acid by following its amplification.)

pIC50: −log10 of the molar value.

As a reminder, the pIC50 is −log10 of the IC50, conventionally taken in molar units. Turning to `CCOC(=O)Nc1ccc2c(c1)N(C(=O)CN(CC)CC)c1ccccc1CC2` [CINPA1], the “CAR-LBD interaction with PGC-1α coactivator peptide” value on GST-hCAR-LBD (dose response, FIG. 6A) is “efficiently inhibits”. Further, the pIC50 at GST-hCAR-LBD (read-out: IC50 (CAR inverse agonistic activity)) was 6.16. In data set [1] (HepG2-hCAR1, 0.1 μM CINPA1 or 1 μM PK11195, 24 h), the “MDR1 mRNA level” value is reported as “reduced MDR1 levels”. In addition, in data set [1] (HepG2-hCAR1, 1 μM, 24 h), the “CYP2B6 mRNA level” value is “substantially and significantly attenuated”; the “CYP3A4 mRNA level” value was “substantially and significantly attenuated”.
